{"source": "patent US6376426B1", "about": "“Herbicidal 3-(heterocycl-1-yl)-uracils” (BASF Aktiengesellschaft, priority 1999, dated 2002)", "assay_type_in_all_cases": "in vivo", "key": {"Triticum aestivum [1]": {"system": "Triticum aestivum", "test": "Pre-emergence herbicidal test, TRZAW", "settings": "21 days after spraying", "experimental": "(§1) To evaluate their herbicidal activity, compounds according to the invention are tested using a representative range of plants:\n(§2) The pre-emergence tests involve spraying a liquid formulation of the compound onto the soil in which the seeds of the plant species mentioned above has recently been sown.\n(§3) The soil used in the tests is a prepared horticultural loam. The formulations used in the tests are prepared from solutions of the test compounds in acetone containing 0.4% by weight of an alkylphenol/ethylene oxide condensate available under the trade mark TRITON X-155. […] In these tests untreated sown soil are used as controls.\n(§4) The herbicidal effects of the test compounds are assessed visually twenty-one days after spraying the foliage and the soil and are recorded on a 0-9 scale. A rating 0 indicates growth as untreated control, a rating 9 indicates death. An increase of 1 unit on the linear scale approximates to a 10% increase in the level of effect."}, "Hordeum vulgare [2]": {"system": "Hordeum vulgare", "test": "Pre-emergence herbicidal test, HORVW", "settings": "21 days after spraying", "experimental": "as §1, §2, §3, §4"}, "Zea mays [3]": {"system": "Zea mays", "test": "Pre-emergence herbicidal test, ZEAMX", "settings": "PRE, 21 days after spraying", "experimental": "as §1, §2, §3, §4"}, "Glycine max [4]": {"system": "Glycine max", "test": "Pre-emergence herbicidal test, GLXMA", "settings": "PRE, 21 days after spraying", "experimental": "as §1, §2, §3, §4"}, "Setaria viridis [5]": {"system": "Setaria viridis", "test": "Pre-emergence herbicidal test, SETVI", "set-up": "key to herbicidal effect (0-9 scale) SETVI / herbicidal rating SETVI: A rating 0 indicates growth as untreated control; a rating 9 indicates death", "settings": "PRE, 21 days after spraying", "experimental": "as §1, §2, §3, §4"}, "Echinochloa crus-galli [6]": {"system": "Echinochloa crus-galli", "test": "Pre-emergence herbicidal test, ECHCG", "settings": "21 days after spraying", "experimental": "as §1, §2, §3, §4"}, "Ipomoea hederacea [7]": {"system": "Ipomoea hederacea", "test": "Pre-emergence herbicidal test, IPOHE", "settings": "21 days after spraying", "experimental": "as §1, §2, §3, §4"}, "Galium aparine [8]": {"system": "Galium aparine", "test": "Pre-emergence herbicidal test, GALAP", "set-up": "key to herbicidal effect (0-9 scale) GALAP / herbicidal rating GALAP: A rating 0 indicates growth as untreated control; a rating 9 indicates death", "settings": "PRE, 21 days after spraying", "experimental": "as §1, §2, §3, §4"}, "Abutilon theophrasti [9]": {"system": "Abutilon theophrasti", "test": "Pre-emergence herbicidal test, ABUTH", "set-up": "key to herbicidal effect (0-9 scale) ABUTH / herbicidal rating ABUTH: A rating 0 indicates growth as untreated control; a rating 9 indicates death", "settings": "PRE, 21 days after spraying", "experimental": "as §1, §2, §3, §4"}, "Stellaria media [10]": {"system": "Stellaria media", "test": "Pre-emergence herbicidal test, STEME", "set-up": "key to herbicidal effect (0-9 scale) STEME / herbicidal rating STEME: A rating 0 indicates growth as untreated control; a rating 9 indicates death", "settings": "PRE, 21 days after spraying", "experimental": "as §1, §2, §3, §4"}, "Matricaria inodora [11]": {"system": "Matricaria inodora", "test": "Pre-emergence herbicidal test, MATIN", "set-up": "key to herbicidal effect (0-9 scale) MATIN / herbicidal rating MATIN: A rating 0 indicates growth as untreated control; a rating 9 indicates death", "settings": "PRE, 21 days after spraying", "experimental": "as §1, §2, §3, §4"}, "Triticum aestivum [12]": {"system": "Triticum aestivum", "test": "Post-emergence herbicidal test, TRZAW", "settings": "POST, 21 days after spraying", "experimental": "as §1\n(§5) […] After spraying, the plants are placed on greenhouse benches and are cared for in the usual manner, commensurate with conventional greenhouse practices.\nas §4"}, "Hordeum vulgare [13]": {"system": "Hordeum vulgare", "test": "Post-emergence herbicidal test, HORVW", "settings": "21 days after spraying", "experimental": "as §1\nThese acetone solutions are diluted with water and the resulting formulations applied at dosage levels equivalent to about 1000, 800, 400, 250 or 100 g/ha per hectare of test compound per pot. After spraying, the plants are placed on greenhouse benches and are cared for in the usual manner, commensurate with conventional greenhouse practices.\nas §4"}, "Zea mays [14]": {"system": "Zea mays", "test": "Post-emergence herbicidal test, ZEAMX", "settings": "21 days after spraying", "experimental": "as §1, §5, §4"}, "Glycine max [15]": {"system": "Glycine max", "test": "Post-emergence herbicidal test, GLXMA", "settings": "21 days after spraying", "experimental": "as §1, §5, §4"}, "Setaria viridis [16]": {"system": "Setaria viridis", "test": "Post-emergence herbicidal test, SETVI", "set-up": "key to herbicidal effect (0-9 scale) SETVI / herbicidal rating SETVI: A rating 0 indicates growth as untreated control; a rating 9 indicates death", "settings": "POST, 21 days after spraying", "experimental": "as §1, §5, §4"}, "Echinochloa crus-galli [17]": {"system": "Echinochloa crus-galli", "test": "Post-emergence herbicidal test, ECHCG", "set-up": "key: A rating 0 indicates growth as untreated control; a rating 9 indicates death", "settings": "21 days after spraying", "experimental": "as §1, §5, §4"}, "Alopecurus myosuroides": {"system": "Alopecurus myosuroides", "test": "Post-emergence herbicidal test, ALOMY", "set-up": "key: A rating 0 indicates growth as untreated control; a rating 9 indicates death", "settings": "21 days after spraying", "experimental": "as §1, §5, §4"}, "Ipomoea hederacea [18]": {"system": "Ipomoea hederacea", "test": "Post-emergence herbicidal test, IPOHE", "set-up": "key to herbicidal effect (0-9 scale) IPOHE / herbicidal rating IPOHE: A rating 0 indicates growth as untreated control; a rating 9 indicates death", "settings": "POST, 21 days after spraying", "experimental": "as §1, §5, §4"}, "Galium aparine [19]": {"system": "Galium aparine", "test": "Post-emergence herbicidal test, GALAP", "set-up": "key to herbicidal effect (0-9 scale) GALAP / herbicidal rating GALAP: A rating 0 indicates growth as untreated control; a rating 9 indicates death", "settings": "POST, 21 days after spraying", "experimental": "as §1, §5, §4"}, "Abutilon theophrasti [20]": {"system": "Abutilon theophrasti", "test": "Post-emergence herbicidal test, ABUTH", "set-up": "key to herbicidal effect (0-9 scale) ABUTH / herbicidal rating ABUTH: A rating 0 indicates growth as untreated control; a rating 9 indicates death", "settings": "POST, 21 days after spraying", "experimental": "as §1, §5, §4"}, "Stellaria media [21]": {"system": "Stellaria media", "test": "Post-emergence herbicidal test, STEME", "set-up": "key to herbicidal effect (0-9 scale) STEME / herbicidal rating STEME: A rating 0 indicates growth as untreated control; a rating 9 indicates death", "settings": "POST, 21 days after spraying", "experimental": "as §1, §5, §4"}, "Matricaria inodora [22]": {"system": "Matricaria inodora", "test": "Post-emergence herbicidal test, MATIN", "set-up": "key to herbicidal effect (0-9 scale) MATIN / herbicidal rating MATIN: A rating 0 indicates growth as untreated control; a rating 9 indicates death", "settings": "POST, 21 days after spraying", "experimental": "as §1, §5, §4"}}, "data": [{"smiles": "Cn1c(C(F)(F)F)cc(=O)n(-n2ccc3cc([N+](=O)[O-])ccc32)c1=O", "note": "[Example 4]", "values": [{"measurement": "herbicidal effect (0-9 scale) TRZAW", "setting": "Triticum aestivum [1]; 400 g/ha", "value": 3}, {"measurement": "herbicidal effect (0-9 scale) TRZAW", "setting": "Triticum aestivum [1]; 800 g/ha", "value": 6}, {"measurement": "herbicidal effect (0-9 scale) HORVW", "setting": "Hordeum vulgare [2]; 400 g/ha", "value": 5}, {"measurement": "herbicidal effect (0-9 scale) HORVW", "setting": "Hordeum vulgare [2]; 800 g/ha", "value": 7}, {"measurement": "herbicidal effect (0-9 scale) ZEAMX", "setting": "Zea mays [3]; 400 g/ha", "value": 6}, {"measurement": "herbicidal effect (0-9 scale) ZEAMX", "setting": "Zea mays [3]; 800 g/ha", "value": 8}, {"measurement": "herbicidal effect (0-9 scale) GLXMA", "setting": "Glycine max [4]; 400 g/ha", "value": 3}, {"measurement": "herbicidal effect (0-9 scale) GLXMA", "setting": "Glycine max [4]; 800 g/ha", "value": 3}, {"measurement": "herbicidal effect (0-9 scale) SETVI", "setting": "Setaria viridis [5]; 400 g/ha", "value": 9}, {"measurement": "herbicidal effect (0-9 scale) SETVI", "setting": "Setaria viridis [5]; 800 g/ha", "value": 9}, {"measurement": "herbicidal effect (0-9 scale) ECHCG", "setting": "Echinochloa crus-galli [6]; 400 g/ha", "value": 8}, {"measurement": "herbicidal effect (0-9 scale) ECHCG", "setting": "Echinochloa crus-galli [6]; 800 g/ha", "value": 8}, {"measurement": "herbicidal effect (0-9 scale) IPOHE", "setting": "Ipomoea hederacea [7]; 400 g/ha", "value": 7}, {"measurement": "herbicidal effect (0-9 scale) IPOHE", "setting": "Ipomoea hederacea [7]; 800 g/ha", "value": 8}, {"measurement": "herbicidal effect (0-9 scale) GALAP", "setting": "Galium aparine [8]; 400 g/ha", "value": 9}, {"measurement": "herbicidal effect (0-9 scale) GALAP", "setting": "Galium aparine [8]; 800 g/ha", "value": 9}, {"measurement": "herbicidal effect (0-9 scale) ABUTH", "setting": "Abutilon theophrasti [9]; 400 g/ha", "value": 9}, {"measurement": "herbicidal effect (0-9 scale) ABUTH", "setting": "Abutilon theophrasti [9]; 800 g/ha", "value": 9}, {"measurement": "herbicidal effect (0-9 scale) STEME", "setting": "Stellaria media [10]; 400 g/ha", "value": 9}, {"measurement": "herbicidal effect (0-9 scale) STEME", "setting": "Stellaria media [10]; 800 g/ha", "value": 9}, {"measurement": "herbicidal effect (0-9 scale) MATIN", "setting": "Matricaria inodora [11]; 400 g/ha", "value": 9}, {"measurement": "herbicidal effect (0-9 scale) MATIN", "setting": "Matricaria inodora [11]; 800 g/ha", "value": 9}, {"measurement": "herbicidal effect (0-9 scale) TRZAW", "setting": "Triticum aestivum [12]; 400 g/ha", "value": 4}, {"measurement": "herbicidal effect (0-9 scale) TRZAW", "setting": "Triticum aestivum [12]; 800 g/ha", "value": 4}, {"measurement": "herbicidal effect (0-9 scale) HORVW", "setting": "Hordeum vulgare [13]; 400 g/ha", "value": 5}, {"measurement": "herbicidal effect (0-9 scale) HORVW", "setting": "Hordeum vulgare [13]; 800 g/ha", "value": 6}, {"measurement": "herbicidal effect (0-9 scale) ZEAMX", "setting": "Zea mays [14]; 400 g/ha", "value": 6}, {"measurement": "herbicidal effect (0-9 scale) ZEAMX", "setting": "Zea mays [14]; 800 g/ha", "value": 8}, {"measurement": "herbicidal effect (0-9 scale) GLXMA", "setting": "Glycine max [15]; 400 g/ha", "value": 8}, {"measurement": "herbicidal effect (0-9 scale) GLXMA", "setting": "Glycine max [15]; 800 g/ha", "value": 8}, {"measurement": "herbicidal effect (0-9 scale) SETVI", "setting": "Setaria viridis [16]; 400 g/ha", "value": 9}, {"measurement": "herbicidal effect (0-9 scale) SETVI", "setting": "Setaria viridis [16]; 800 g/ha", "value": 9}, {"measurement": "herbicidal effect (0-9 scale) ECHCG", "setting": "Echinochloa crus-galli [17]; 400 g/ha", "value": 8}, {"measurement": "herbicidal effect (0-9 scale) ECHCG", "setting": "Echinochloa crus-galli [17]; 800 g/ha", "value": 9}, {"measurement": "herbicidal effect (0-9 scale) ALOMY", "setting": "Alopecurus myosuroides; 400 g/ha", "value": 8}, {"measurement": "herbicidal effect (0-9 scale) ALOMY", "setting": "Alopecurus myosuroides; 800 g/ha", "value": 9}, {"measurement": "herbicidal effect (0-9 scale) IPOHE", "setting": "Ipomoea hederacea [18]; 400 g/ha", "value": 9}, {"measurement": "herbicidal effect (0-9 scale) IPOHE", "setting": "Ipomoea hederacea [18]; 800 g/ha", "value": 9}, {"measurement": "herbicidal effect (0-9 scale) GALAP", "setting": "Galium aparine [19]; 400 g/ha", "value": 8}, {"measurement": "herbicidal effect (0-9 scale) GALAP", "setting": "Galium aparine [19]; 800 g/ha", "value": 9}, {"measurement": "herbicidal effect (0-9 scale) ABUTH", "setting": "Abutilon theophrasti [20]; 400 g/ha", "value": 9}, {"measurement": "herbicidal effect (0-9 scale) ABUTH", "setting": "Abutilon theophrasti [20]; 800 g/ha", "value": 9}, {"measurement": "herbicidal effect (0-9 scale) STEME", "setting": "Stellaria media [21]; 400 g/ha", "value": 9}, {"measurement": "herbicidal effect (0-9 scale) STEME", "setting": "Stellaria media [21]; 800 g/ha", "value": 9}, {"measurement": "herbicidal effect (0-9 scale) MATIN", "setting": "Matricaria inodora [22]; 400 g/ha", "value": 9}, {"measurement": "herbicidal effect (0-9 scale) MATIN", "setting": "Matricaria inodora [22]; 800 g/ha", "value": 9}]}]}
